According to patent US11807625B2, “Capsid inhibitors for the prevention of HIV” (Gilead Sciences, Inc., priority 2019, dated 2023):
Where two headings read alike, the source gives them in different places.

Assay: PK of compound of Formula (Ia) after single subcutaneous dose of solution formulations in Wistar Han rats
Assay type: in vivo
Conditions: male, Wistar Han, rat, plasma, sc, 50 mg/kg, mean ± SD
Method: Formulations containing the compound of Formula (Ia), or a pharmaceutically acceptable salt thereof, were prepared as solutions and optionally administered subcutaneously or intramuscularly to rats, rabbits, and/or dogs.
(§1) A solution of about 400 mg/mL of the compound of Formula (Ia) having 19.14 w/w % water, 40.66 w/w % PEG 300, 35.20 w/w % of a sodium salt of a compound of Formula (Ia), and 5.00% ethanol was prepared. The solution was administered subcutaneously to male Wistar Han rats at a dose level of about 50 mg/kg and dose volume of 0.125 mL/kg and the pharmacokinetic (PK) profile was determined.
as §1, with “500” for “400”, “16.64” for “19.14”, “35.36” for “40.66”, “43.00” for “35.20”, “0.1” for “0.125”
(§2) A solution of about 400 mg/mL of the compound of Formula (Ia) having 17.00 w/w % water, 36.40 w/w % PEG 300, 35.20 w/w % of a sodium salt of a compound of Formula (Ia), 5.00 w/w % ethanol, and 6.40 w/w % poloxamer 188 was prepared. The solution was administered subcutaneously to male beagle dogs at a dose level of about 12 mg/kg and male Wistar Han rats at a dose level of about 50 mg/kg. The pharmacokinetic profiles were determined, and the results for dogs are summarized in Table and Table, while the results for rats are summarized in Table and Table below.
as §2, with “500” for “400”, “14.06” for “17.00”, “30.12” for “36.40”
A solution of about 300 mg/mL of the compound of Formula (Ia) having 23.33 w/w % water, 48.99 w/w % PEG 300, 26.47 w/w % of a sodium salt of a compound of Formula (Ia), and 1.21 w/w % poloxamer 188 was prepared. The solution was administered subcutaneously to male beagle dogs at a dose level of about 6 mg/kg and male Wistar Han rats at a dose level of about 50 mg/kg. The pharmacokinetic profiles were determined, and the results for dogs are summarized in Table and Table, while the results for rats are summarized in Table and Table below.
as §2, with “18.80” for “17.00”, “40.25” for “36.40”, “34.38” for “35.20”, “1.57” for “6.40”
as §2, with “500” for “400”, “16.29” for “17.00”, “34.88” for “36.40”, “41.92” for “35.20”, “1.91” for “6.40”
A solution of about 400 mg/mL of the compound of Formula (Ia) having 20.90 w/w % water, 44.72 w/w % PEG 300, and 34.38 w/w % of a sodium salt of a compound of Formula (Ia) was prepared. […]

AUC(0-t) (male Wistar Han rats, single SC 50 mg/kg, 400 mg/mL solution Y (water, PEG 300), n = 4, read-out: AUC0-336 h): 31.6 ± 10.9 µM·h | AUC(0-t) (male Wistar Han rats, single SC 50 mg/kg, 400 mg/mL solution Y (water, PEG 300), n = 4, read-out: AUC0-672 h): 74.9 ± 33.7 µM·h | AUC(0-t) (male Wistar Han rats, single SC 50 mg/kg, 400 mg/mL solution Y (water, PEG 300), n = 4, read-out: AUC0-1008 h): 128 ± 64 µM·h | AUC(0-t) (male Wistar Han rats, single SC 50 mg/kg, 400 mg/mL solution Y (water, PEG 300), n = 4, read-out: AUC0-1344 h): 182 ± 100 µM·h | AUC(0-t) (male Wistar Han rats, single SC 50 mg/kg, 400 mg/mL solution Y (water, PEG 300), n = 4, read-out: AUC0-1680 h): 230 ± 132 µM·h | AUC(0-t) (male Wistar Han rats, single SC 50 mg/kg, 400 mg/mL solution Y (water, PEG 300), n = 4, read-out: AUC0-2352 h): 312 ± 181 µM·h | AUC(0-t) (male Wistar Han rats, single SC 50 mg/kg, 400 mg/mL solution Y (water, PEG 300), n = 4, read-out: AUC0-3024 h): 389 ± 229 µM·h | AUC(0-t) (male Wistar Han rats, single SC 50 mg/kg, 400 mg/mL solution Y (water, PEG 300), n = 4, read-out: AUC0-3696 h): 454 ± 255 µM·h | AUC(0-t) (male Wistar Han rats, single SC 50 mg/kg, 400 mg/mL solution Z (3.13% poloxamer 188), n = 4, read-out: AUC0-24 h): 2.37 ± 1.6 µM·h | AUC(0-t) (male Wistar Han rats, single SC 50 mg/kg, 400 mg/mL solution Z (3.13% poloxamer 188), n = 4, read-out: AUC0-168 h): 23.9 ± 12.4 µM·h | AUC(0-t) (male Wistar Han rats, single SC 50 mg/kg, 400 mg/mL solution Z (3.13% poloxamer 188), n = 4, read-out: AUC0-336 h): 49.4 ± 25.4 µM·h | AUC(0-t) (male Wistar Han rats, single SC 50 mg/kg, 400 mg/mL solution Z (3.13% poloxamer 188), n = 4, read-out: AUC0-672 h): 106 ± 49 µM·h | AUC(0-t) (male Wistar Han rats, single SC 50 mg/kg, 400 mg/mL solution Z (3.13% poloxamer 188), n = 4, read-out: AUC0-1008 h): 163 ± 68 µM·h | AUC(0-t) (male Wistar Han rats, single SC 50 mg/kg, 400 mg/mL solution Z (3.13% poloxamer 188), n = 4, read-out: AUC0-1344 h): 214 ± 85 µM·h | AUC(0-t) (male Wistar Han rats, single SC 50 mg/kg, 400 mg/mL solution Z (3.13% poloxamer 188), n = 4, read-out: AUC0-1680 h): 259 ± 99 µM·h | AUC(0-t) (male Wistar Han rats, single SC 50 mg/kg, 400 mg/mL solution Z (3.13% poloxamer 188), n = 4, read-out: AUC0-2352 h): 344 ± 117 µM·h | AUC(0-t) (male Wistar Han rats, single SC 50 mg/kg, 400 mg/mL solution Z (3.13% poloxamer 188), n = 4, read-out: AUC0-3024 h): 435 ± 129 µM·h | AUC(0-t) (male Wistar Han rats, single SC 50 mg/kg, 400 mg/mL solution Z (3.13% poloxamer 188), n = 4, read-out: AUC0-3696 h): 544 ± 156 µM·h | AUC(0-t) (male Wistar Han rats, single SC 50 mg/kg, 500 mg/mL solution X (5.00% ethanol, 1.91% poloxamer 188), n = 3, read-out: AUC0-24 h): 2.82 ± 0.53 µM·h | AUC(0-t) (male Wistar Han rats, single SC 50 mg/kg, 500 mg/mL solution X (5.00% ethanol, 1.91% poloxamer 188), n = 3, read-out: AUC0-168 h): 30.1 ± 5.1 µM·h | AUC(0-t) (male Wistar Han rats, single SC 50 mg/kg, 500 mg/mL solution X (5.00% ethanol, 1.91% poloxamer 188), n = 3, read-out: AUC0-336 h): 64.5 ± 11.4 µM·h | AUC(0-t) (male Wistar Han rats, single SC 50 mg/kg, 500 mg/mL solution X (5.00% ethanol, 1.91% poloxamer 188), n = 3, read-out: AUC0-672 h): 152 ± 23 µM·h | AUC(0-t) (male Wistar Han rats, single SC 50 mg/kg, 500 mg/mL solution X (5.00% ethanol, 1.91% poloxamer 188), n = 3, read-out: AUC0-1008 h): 244 ± 29 µM·h | AUC(0-t) (male Wistar Han rats, single SC 50 mg/kg, 500 mg/mL solution X (5.00% ethanol, 1.91% poloxamer 188), n = 3, read-out: AUC0-1344 h): 329 ± 35 µM·h | AUC(0-t) (male Wistar Han rats, single SC 50 mg/kg, 500 mg/mL solution X (5.00% ethanol, 1.91% poloxamer 188), n = 3, read-out: AUC0-1680 h): 416 ± 47 µM·h | AUC(0-t) (male Wistar Han rats, single SC 50 mg/kg, 500 mg/mL solution X (5.00% ethanol, 1.91% poloxamer 188), n = 3, read-out: AUC0-2352 h): 549 ± 64 µM·h | AUC(0-t) (male Wistar Han rats, single SC 50 mg/kg, 500 mg/mL solution X (5.00% ethanol, 1.91% poloxamer 188), n = 3, read-out: AUC0-3024 h): 659 ± 80 µM·h | AUC(0-t) (male Wistar Han rats, single SC 50 mg/kg, 500 mg/mL solution X (5.00% ethanol, 1.91% poloxamer 188), n = 3, read-out: AUC0-3696 h): 761 ± 84 µM·h | AUC(0-t) (male Wistar Han rats, single SC 50 mg/kg, 500 mg/mL solution X (5.00% ethanol, 1.91% poloxamer 188), n = 3, read-out: AUC0-4704 h): 806 ± 83 µM·h | Cmax (n = 3 rats, SC 50 mg/kg, solution R, 400 mg/mL): 0.37 ± 0.065 µM | AUC(0-t) (n = 3 rats, SC 50 mg/kg, solution R, 400 mg/mL, read-out: AUC0-24h): 3.02 ± 0.65 µM·h | AUC(0-t) (n = 3 rats, SC 50 mg/kg, solution R, 400 mg/mL, read-out: AUC0-168h): 25.2 ± 5.3 µM·h | AUC(0-t) (n = 3 rats, SC 50 mg/kg, solution R, 400 mg/mL, read-out: AUC0-336h): 60.6 ± 8.3 µM·h | AUC(0-t) (n = 3 rats, SC 50 mg/kg, solution R, 400 mg/mL, read-out: AUC0-672h): 170 ± 5.4 µM·h | AUC(0-t) (n = 3 rats, SC 50 mg/kg, solution R, 400 mg/mL, read-out: AUC0-1008h): 287 ± 32 µM·h
Compound: CC(C)(C#Cc1ccc(-c2ccc(Cl)c3c(NS(C)(=O)=O)nn(CC(F)(F)F)c23)c([C@H](Cc2cc(F)cc(F)c2)NC(=O)Cn2nc(C(F)(F)F)c3c2C(F)(F)[C@@H]2C[C@H]32)n1)S(C)(=O)=O [compound of Formula (Ia)]
